This note sets out measurements from US20230129258A1, “HETEROTANDEM BICYCLIC PEPTIDE COMPLEXES” (BicycleTx Limited, priority 2019, published 2023).

Starred links: 1 amine or outer side, 2 acyl side, 3 side chain; linkers in the order of their positions; H or OH if unused. Positions of bridges follow the written chain, without caps; N, C: chain ends. Non-standard residues stand in square brackets, D forms with d. Chains are numbered I, II in the order given. X1 = O=C(CCOCCOCCOCCN(CCOCCOCCOCCn1cc(CCC(=O)[*:2])nn1)CCOCCOCCOCCn1cc(CCC(=O)[*:3])nn1)[*:1]; X3 = O=C(CCc1cn(CCOCCOCCOCCN(CCOCCOCCOCCC(=O)[*:3])CCOCCOCCOCCn2cc(CCC(=O)[*:2])nn2)nn1)[*:1]; X2 = O=C(CCSCCC(=O)[*:1])N1CN(C(=O)CC[*:2])CN(C(=O)CC[*:3])C1; TATA = O=C(CC[*:1])N1CN(C(=O)CC[*:2])CN(C(=O)CC[*:3])C1; Dip = N[C@H](C(=O)O)C(c1ccccc1)c1ccccc1; 1Nal = N[C@@H](Cc1cccc2ccccc12)C(=O)O; d1Nal = N[C@H](Cc1cccc2ccccc12)C(=O)O; Hyp = O=C(O)[C@@H]1C[C@@H](O)CN1; hArg = N=C(N)NCCCC[C@H](N)C(=O)O; tBuAla = CC(C)(C)C[C@H](N)C(=O)O; Cba = N[C@@H](CC1CCC1)C(=O)O; NMeA = CN[C@@H](C)C(=O)O; Nle = CCCC[C@H](N)C(=O)O; Mpa = O=C(O)CCS

This data set has as its target CD137 (Homo sapiens, UniProt Q07011). Nature of the data set: CD137 reporter assay (Promega, Jurkat cells) in co-culture with EphA2-expressing tumor cells (A549, PC3, HT29). Format: cell-based. The arrangement: host or cells: Jurkat reporter cells. The settings on record: for fold induction / Emax (fold induction over background): CD137 reporter coculture assay with PC3 tumor cells; for fold induction: read-out: Emax (fold induction over background); for EC50: EC50, CD137 reporter coculture assay with PC3 tumor cells. Here is the method: Culture medium, referred to as R1 media, is prepared by adding 1% FBS to RPMI-1640 (component of Promega kit CS196005). Serial dilutions of test articles in R1 are prepared in a sterile 96 well-plate. Add 25 μL per well of test articles or R1 (as a background control) to designated wells in a white cell culture plate. Tumor cells* are harvested and resuspended at a concentration of 400,000 cells/mL in R1 media. Twenty five (25) μL/well of tumor cells are added to the white cell culture plate. Jurkat cells (Promega kit CS196005, 0.5 mL) are thawed in the water bath and then added to 5 ml pre-warmed R1 media. Twenty five (25) μL/well of Jurkat cells are then added to the white cell culture plate. Incubate the cells and test articles for 6 h at 37° C., 5% CO2. At the end of 6 h, add 75 μL/well Bio-Glo™ reagent (Promega) and incubate for 10 min before reading luminescence in a plate reader (Clariostar, BMG). The fold change relative to cells alone (Jurkat cells+Cell line used in co-culture) is calculated and plotted in GraphPad Prism as log(agonist) vs response to determine EC50 (nM) and Fold Induction over background (Max).
The tumor cell types used in co-culture for EphA2 are A549, PC3 and HT29. The tumor cell type used in co-culture for PD-L1 is RKO.
Background: A reporter such as luciferase makes a cellular process visible.

CD137, sequence (Q07011 24-255): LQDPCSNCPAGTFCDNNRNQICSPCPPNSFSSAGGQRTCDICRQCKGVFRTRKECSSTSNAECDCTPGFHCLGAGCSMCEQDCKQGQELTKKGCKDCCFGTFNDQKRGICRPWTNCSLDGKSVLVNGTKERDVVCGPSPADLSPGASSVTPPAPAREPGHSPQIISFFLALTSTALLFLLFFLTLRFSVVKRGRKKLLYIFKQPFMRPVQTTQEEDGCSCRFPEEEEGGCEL

For the substance “I: Ac-A[hArg]DC[Hyp]LVNPLCLHP[dD]W[hArg]CK-NH2 / II: Ac-C[tBuAla]PE[dK]PYCFADPY[Nle]CA-NH2 / III: Ac-C[tBuAla]PE[dK]PYCFADPY[Nle]CA-NH2 (linker I:4-I:11-I:18, II:1-II:8-II:15, III:1-III:8-III:15 via TATA; linker I:19-II:5-III:5 via X1) [BCY12973]”, the fold induction worked out at 48.6 and a half-maximal effect (EC50) was put at 0.16 nM.
On the same counts, the results for “I: Ac-A[hArg]DC[Hyp]LVNPLCLKP[dD]W[hArg]C-NH2 / II: Ac-C[tBuAla]PE[dK]PYCFADPY[Nle]CA-NH2 / III: Ac-C[tBuAla]PE[dK]PYCFADPY[Nle]CA-NH2 (linker I:4-I:11-I:18, II:1-II:8-II:15, III:1-III:8-III:15 via TATA; linker I:13-II:5-III:5 via X1) [BCY12974]” are 59.6 and 0.18 nM.
Regarding “I: Ac-C[Hyp]LVNPLCL[Dip]P[dD]WTC[dK]-NH2 / II: Ac-C[tBuAla]PE[dK]PYCFADPY[Nle]CA-NH2 / III: Ac-C[tBuAla]PE[dK]PYCFADPY[Nle]CA-NH2 (linker I:1-I:8-I:15, II:1-II:8-II:15, III:1-III:8-III:15 via TATA; linker I:16-II:5-III:5 via X1; C-terminus assumed) [BCY13274]”, the “Emax (fold induction over background)” value is given as 47.43 and a half-maximal effect (EC50) was put at 0.19 nM.
Take “I: Ac-C[tBuAla]PE[dK]PYCFADPY[Nle]CA-NH2 / II: Ac-C[tBuAla]PE[dK]PYCFADPY[Nle]CA-NH2 / III: C[Hyp]LVNPLCL[1Nal]P[dD]WTC-NH2 (linker I:1-I:8-I:15, II:1-II:8-II:15, III:1-III:8-III:15 via TATA; linker I:5-II:5-III:N via X3) [BCY13273]”: the “Emax (fold induction over background)” value amounted to 51.27.
Still for that read-out and setting: under “I: C[Hyp]LVNPLCLEP[dD]WTC[dA]-NH2 / II: Ac-C[tBuAla]PE[dK]PYCFADPY[Nle]CA-NH2 / III: Ac-C[tBuAla]PE[dK]PYCFADPY[Nle]CA-NH2 (linker I:1-I:8-I:15, II:1-II:8-II:15, III:1-III:8-III:15 via TATA; linker I:N-II:5-III:5 via X1) [BCY13049]” stands 46.03.
Take “I: C[Hyp]LVNPLCL[Dip]P[dD]WTC-NH2 / II: [Mpa][tBuAla]PE[dK]PYCFADPY[Nle]C-NH2 / III: [tBuAla]PE[dK]PYCFADPY[Nle]C-NH2 (linker I:1-I:8-I:15, II:1-II:8-II:15 via TATA; linker I:N-II:5-III:4 via X1; linker III:N-III:7-III:14 via X2) [BCY13343]”: the “Emax (fold induction over background)” value worked out at 44.00 and a half-maximal response (EC50) required 0.11 nM.
In the same order, the values of “I: C[Hyp][Cba]VNPLCL[Dip]P[dD]WTC[dA]-NH2 / II: Ac-C[tBuAla]PE[dK]PYCFADPY[Nle]CA-NH2 / III: Ac-C[tBuAla]PE[dK]PYCFADPY[Nle]CA-NH2 (linker I:1-I:8-I:15, II:1-II:8-II:15, III:1-III:8-III:15 via TATA; linker I:N-II:5-III:5 via X1) [BCY13053]” are 40.33 and 0.1 nM.
In the case of “I: C[Hyp][Cba]VNPLCL[Dip]P[dD]WTC[dA]-NH2 / II: [Mpa][tBuAla]PE[dK]PYCFADPY[Nle]C-NH2 / III: [tBuAla]PE[dK]PYCFADPY[Nle]C-NH2 (linker I:1-I:8-I:15, II:1-II:8-II:15 via TATA; linker I:N-II:5-III:4 via X1; linker III:N-III:7-III:14 via X2) [BCY13341]”, the “Emax (fold induction over background)” value was found to be 49.15 and the EC50 is 0.19 nM.
On to “I: [NMeA][hArg]DC[Hyp]LVNPLCLEP[dD]WTC-NH2 / II: Ac-C[tBuAla]PE[dK]PYCFADPY[Nle]CA-NH2 / III: Ac-C[tBuAla]PE[dK]PYCFADPY[Nle]CA-NH2 (linker I:4-I:11-I:18, II:1-II:8-II:15, III:1-III:8-III:15 via TATA; linker I:N-II:5-III:5 via X1) [BCY13276]”, for which the fold induction was found to be 50.5 and the concentration giving a half-maximal response (EC50) was 0.1 nM.
As for “I: [NMeA][hArg]DC[Hyp]LVNPLCLHP[dD]W[hArg]C-NH2 / II: Ac-C[tBuAla]PE[dK]PYCFADPY[Nle]CA-NH2 / III: Ac-C[tBuAla]PE[dK]PYCFADPY[Nle]CA-NH2 (linker I:4-I:11-I:18, II:1-II:8-II:15, III:1-III:8-III:15 via TATA; linker I:N-II:5-III:5 via X1) [BCY13275]”, the “Emax (fold induction over background)” value worked out at 47.50 and the EC50 was 0.08 nM.
Regarding “I: [d1Nal][hArg]DC[Hyp][Cba]VNPLCLEP[dA]WTC[dA]-NH2 / II: Ac-C[tBuAla]PE[dK]PYCFADPY[Nle]CA-NH2 / III: Ac-C[tBuAla]PE[dK]PYCFADPY[Nle]CA-NH2 (linker I:4-I:11-I:18, II:1-II:8-II:15, III:1-III:8-III:15 via TATA; linker I:N-II:5-III:5 via X1) [BCY13278]”, the fold induction turned out to be 37.9 and the concentration giving a half-maximal response (EC50) was found to be 0.14 nM.
On the same counts, the results for “I: [dA]EDC[Hyp]LVNPLCLEP[dD]WTC-NH2 / II: Ac-C[tBuAla]PE[dK]PYCFADPY[Nle]CA-NH2 / III: Ac-C[tBuAla]PE[dK]PYCFADPY[Nle]CA-NH2 (linker I:4-I:11-I:18, II:1-II:8-II:15, III:1-III:8-III:15 via TATA; linker I:N-II:5-III:5 via X1) [BCY13280]” are 38.1 and 0.19 nM.
On the same counts, the results for “I: [dA][dA]DC[Hyp]LVNPLCLEP[dD]WTC-NH2 / II: Ac-C[tBuAla]PE[dK]PYCFADPY[Nle]CA-NH2 / III: Ac-C[tBuAla]PE[dK]PYCFADPY[Nle]CA-NH2 (linker I:4-I:11-I:18, II:1-II:8-II:15, III:1-III:8-III:15 via TATA; linker I:N-II:5-III:5 via X1) [BCY13281]” are 35.6 and 0.17 nM.
For “I: [dA][hArg]DC[Hyp][Cba]VNPLCLEP[dA]WTC[dA]-NH2 / II: Ac-C[tBuAla]PE[dK]PYCFADPY[Nle]CA-NH2 / III: Ac-C[tBuAla]PE[dK]PYCFADPY[Nle]CA-NH2 (linker I:4-I:11-I:18, II:1-II:8-II:15, III:1-III:8-III:15 via TATA; linker I:N-II:5-III:5 via X1) [BCY13277]”, the fold induction was determined as 51.1 and a half-maximal effect (EC50) was put at 0.08 nM.
On the same counts, the results for “I: [dA][hArg]DC[Hyp][Cba]VNPLCLEP[dD]WTC[dA]-NH2 / II: Ac-C[tBuAla]PE[dK]PYCFADPY[Nle]CA-NH2 / III: Ac-C[tBuAla]PE[dK]PYCFADPY[Nle]CA-NH2 (linker I:4-I:11-I:18, II:1-II:8-II:15, III:1-III:8-III:15 via TATA; linker I:N-II:5-III:5 via X1) [BCY13052]” are 32.9 and 0.21 nM.

The term EC50 denotes the concentration that produces a half-maximal response. Lower therefore signals an effect from little substance.
